The values below come from patent US7888120B2, “Global regulator of morphogenesis and pathogenicity in dimorphic fungi and uses thereof” (Wisconsin Alumni Research Foundation, priority 2006, dated 2011).

For the assay, the system named is B. dermatitidis mutant 4-2-2. It is filed as cell-based, Blastomyces dermatitidis.

With `Nc1c(/N=N/c2ccc(-c3ccc(/N=N/c4cc(S(=O)(=O)O)c5ccccc5c4N)cc3)cc2)cc(S(=O)(=O)O)c2ccccc12` [Congo red], the “Sensitivity of mutant versus parent strain T53-19” value is given as “more sensitive than the parent strain”.

As for `O=S(=O)([O-])c1cc(Nc2nc(Nc3ccccc3)nc(N(CCO)CCO)n2)ccc1/C=C/c1ccc(Nc2nc(Nc3ccccc3)nc(N(CCO)CCO)n2)cc1S(=O)(=O)[O-].[Na+].[Na+]` [calcofluor], the “Sensitivity of mutant versus parent strain T53-19” value is “more sensitive than the parent strain”.
